# Columns and labels:
# Assay type in all cases: physicochemical
# [1] = Dissolution test of poorly-soluble substances, 2nd fluid for disintegration test (pH 6.8) of the Japanese Pharmacopoeia
# Method: (§1) From initiation of the test, the mixed solution was stirred with a stirrer having a length of 15 mm. The rotation number of the stirrer was 120 rpm, and all of the tests were conducted in a thermostat at 37±0.5° C. Two types of test solutions, namely, distilled water and 2nd fluid for disintegration test (pH 6.8) of the Japanese Pharmacopoeia were used. As such 2nd fluid for disintegration test of the Japanese Pharmacopoeia, a solution prepared by diluting the 10-fold concentration solution of Kanto Kagaku Co., Ltd. with distilled water was used.
# (§2) A comparative test was carried out in the same manner as that described above, with the exception that, instead of a substance with improved aqueous solubility coated with hydroxyapatite microparticles and with a pH adjuster and/or a surfactant, a poorly-soluble substance or the like was used in the same amount as the substance with improved aqueous solubility.
# (§3) […] The thus sampled solution was centrifuged at 12,000 rpm for 5 minutes. Thereafter, the substance with improved aqueous solubility and hydroxyapatite microparticles, which had not been dissolved in the solution, were removed. In the case of the comparative test, the poorly-soluble substance or the like, which had not been dissolved in the solution, was removed. An aliquot of this supernatant was immediately frozen. The frozen sample was freeze-dried, and it was then used as a sample in the measurement of the amount of the substance with improved aqueous solubility, which had been dissolved in the test solution. The dissolved poorly-soluble substance was measured mainly using a dual wavelength absorption photometer.
# [2] = Dissolution test of poorly-soluble substances, distilled water
# Method: as §1, §2, §3
# [3] = pH of aqueous solution after 60 minutes in dissolution test using distilled water
# Method: Moreover, as described above, since the pH of a local portion that is contacted with a poorly-soluble substance is more important than the pH of a solution as a whole, when an acidic substance is dissolved, desired effects can be obtained even though the pH is not extremely high. It is sufficient if a pH adjuster is used such that the pH of an aqueous solution of a substance with improved aqueous solubility becomes pH 8 or less. […] Herein, the pH of an aqueous solution indicates a pH value that is measured 60 minutes after the addition of a target substance to 50 mL of distilled water in an amount 2 times larger than the substance dissolved in 360 minutes. More specifically, the pH of an aqueous solution indicates a pH value that is measured according to [Dissolution test of poorly-soluble substances] in the below-mentioned Examples.
# as §1
# 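Further: Comparative example rows not the inventive coated formulation.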
structure (smiles),measurement,setting,value
"CCCCNC(=O)NS(=O)(=O)c1ccc(C)cc1 [1-5, Tolbutamide]","Dissolved amount, elution time 1 min",[1],637.3 µg/mL
same,"Dissolved amount, elution time 3 min",[1],1597.2 µg/mL
same,"Dissolved amount, elution time 10 min",[1],2041.9 µg/mL
same,"Dissolved amount, elution time 30 min",[1],2141.1 µg/mL
same,"Dissolved amount, elution time 60 min",[1],2449.4 µg/mL
same,"Dissolved amount, elution time 180 min",[1],2432.9 µg/mL
same,"Dissolved amount, elution time 360 min",[1],2429.1 µg/mL
same,"Dissolved amount, elution time 1 min",[2],48.8 µg/mL
same,"Dissolved amount, elution time 3 min",[2],49.3 µg/mL
same,"Dissolved amount, elution time 10 min",[2],51.3 µg/mL
same,"Dissolved amount, elution time 30 min",[2],56.6 µg/mL
same,"Dissolved amount, elution time 60 min",[2],50.5 µg/mL
same,"Dissolved amount, elution time 180 min",[2],52.9 µg/mL
same,"Dissolved amount, elution time 360 min",[2],68.6 µg/mL
same,pH at 60 minutes after dissolution,[3]; Tolbutamide,4.3
"NC(N)=Nc1nc(CSCCC(N)=NS(N)(=O)=O)cs1 [3-4, Famotidine]","Dissolved amount, elution time 3 min",[1],2286.6 µg/mL
same,"Dissolved amount, elution time 10 min",[1],2541.7 µg/mL
same,"Dissolved amount, elution time 30 min",[1],2600.9 µg/mL
same,"Dissolved amount, elution time 60 min",[1],2667.9 µg/mL
same,"Dissolved amount, elution time 180 min",[1],2509.7 µg/mL
same,"Dissolved amount, elution time 360 min",[1],2410.4 µg/mL
same,"Dissolved amount, elution time 1 min",[2],1162.9 µg/mL
same,"Dissolved amount, elution time 3 min",[2],1502.6 µg/mL
same,"Dissolved amount, elution time 10 min",[2],1416.8 µg/mL
same,"Dissolved amount, elution time 180 min",[2],1509.8 µg/mL
same,"Dissolved amount, elution time 360 min",[2],1497.4 µg/mL
same,pH at 60 minutes after dissolution,[3]; Famotidine,8.4
"COc1cc(Cc2cnc(N)nc2N)cc(OC)c1OC [4-3, Trimethoprim]","Dissolved amount, elution time 1 min",[1],807.8 µg/mL
same,"Dissolved amount, elution time 3 min",[1],1160.4 µg/mL
same,"Dissolved amount, elution time 10 min",[1],1291.7 µg/mL
same,"Dissolved amount, elution time 30 min",[1],1344.0 µg/mL
same,"Dissolved amount, elution time 60 min",[1],1324.8 µg/mL
same,"Dissolved amount, elution time 180 min",[1],1296.5 µg/mL
same,"Dissolved amount, elution time 360 min",[1],1321.9 µg/mL
same,"Dissolved amount, elution time 1 min",[2],354.6 µg/mL
same,"Dissolved amount, elution time 3 min",[2],531.0 µg/mL
same,"Dissolved amount, elution time 10 min",[2],685.0 µg/mL
same,"Dissolved amount, elution time 30 min",[2],677.9 µg/mL
same,"Dissolved amount, elution time 60 min",[2],671.8 µg/mL
same,"Dissolved amount, elution time 180 min",[2],672.0 µg/mL
same,"Dissolved amount, elution time 360 min",[2],656.3 µg/mL
same,pH at 60 minutes after dissolution,[3]; Trimethoprim,8.4
"CC(C)(Sc1cc(C(C)(C)C)c(O)c(C(C)(C)C)c1)Sc1cc(C(C)(C)C)c(O)c(C(C)(C)C)c1 [5-2, Probucol]","Dissolved amount, elution time 1 min",[1]; Probucol,4.7 µg/mL
same,"Dissolved amount, elution time 3 min",[1]; Probucol,14.9 µg/mL
same,"Dissolved amount, elution time 10 min",[1]; Probucol,19.9 µg/mL
same,"Dissolved amount, elution time 30 min",[1]; Probucol,21.2 µg/mL
same,"Dissolved amount, elution time 60 min",[1]; Probucol,21.8 µg/mL
same,"Dissolved amount, elution time 180 min",[1]; Probucol,26.8 µg/mL
same,"Dissolved amount, elution time 360 min",[1]; Probucol,28.0 µg/mL
same,"Dissolved amount, elution time 1 min",[2]; Probucol,0.7 µg/mL
same,"Dissolved amount, elution time 3 min",[2]; Probucol,2.7 µg/mL
same,"Dissolved amount, elution time 10 min",[2]; Probucol,3.7 µg/mL
same,"Dissolved amount, elution time 30 min",[2]; Probucol,6.1 µg/mL
same,"Dissolved amount, elution time 60 min",[2]; Probucol,7.6 µg/mL
same,"Dissolved amount, elution time 180 min",[2]; Probucol,8.3 µg/mL
same,"Dissolved amount, elution time 360 min",[2]; Probucol,9.7 µg/mL
"CCN1CCCC1CNC(=O)c1cc(S(N)(=O)=O)ccc1OC (centres unmarked) [6-4, Sulpiride]",pH at 60 minutes after dissolution,[3]; Sulpiride,9.3
"CC(=O)SC[C@@H](C)C(=O)N1CCC[C@H]1C(=O)N[C@@H](Cc1ccccc1)C(=O)O [8-1, Alacepril]","Dissolved amount, elution time 3 min",[1]; Alacepril,2311.1 µg/mL
same,"Dissolved amount, elution time 10 min",[1]; Alacepril,2514.7 µg/mL
same,"Dissolved amount, elution time 30 min",[1]; Alacepril,2525.0 µg/mL
same,"Dissolved amount, elution time 120 min",[1]; Alacepril,2588.4 µg/mL
same,"Dissolved amount, elution time 3 min",[2]; Alacepril,526.2 µg/mL
same,"Dissolved amount, elution time 10 min",[2]; Alacepril,805.6 µg/mL
same,"Dissolved amount, elution time 30 min",[2]; Alacepril,931.2 µg/mL
same,"Dissolved amount, elution time 120 min",[2]; Alacepril,994.9 µg/mL
same,"Dissolved amount, elution time 360 min",[2]; Alacepril,996.5 µg/mL
same,pH at 60 minutes after dissolution,[3]; Alacepril,2.9
"CC[C@H]1OC(=O)[C@H](C)[C@@H](O[C@H]2C[C@@](C)(OC)[C@@H](O)[C@H](C)O2)[C@H](C)[C@@H](O[C@@H]2O[C@H](C)C[C@H](N(C)C)[C@H]2O)[C@](C)(O)C[C@@H](C)C(=O)[C@H](C)[C@@H](O)[C@]1(C)O [9-1, Erythromycin]","Dissolved amount, elution time 3 min",[1]; Erythromycin,2556.3 µg/mL
same,"Dissolved amount, elution time 10 min",[1]; Erythromycin,4984.2 µg/mL
same,"Dissolved amount, elution time 30 min",[1]; Erythromycin,5103.6 µg/mL
same,"Dissolved amount, elution time 120 min",[1]; Erythromycin,5904.1 µg/mL
same,"Dissolved amount, elution time 360 min",[1]; Erythromycin,6044.7 µg/mL
same,"Dissolved amount, elution time 3 min",[2]; Erythromycin,635.0 µg/mL
same,"Dissolved amount, elution time 10 min",[2]; Erythromycin,861.6 µg/mL
same,"Dissolved amount, elution time 30 min",[2]; Erythromycin,944.7 µg/mL
same,"Dissolved amount, elution time 120 min",[2]; Erythromycin,927.7 µg/mL
same,"Dissolved amount, elution time 360 min",[2]; Erythromycin,846.1 µg/mL
same,pH at 60 minutes after dissolution,[3]; Erythromycin,9.6
"O=C(CCCN1CCC(O)(c2ccc(Cl)cc2)CC1)c1ccc(F)cc1 [10-1, Haloperidol]","Dissolved amount, elution time 3 min",[1]; Haloperidol,23.9 µg/mL
same,"Dissolved amount, elution time 10 min",[1]; Haloperidol,35.6 µg/mL
same,"Dissolved amount, elution time 30 min",[1]; Haloperidol,45.2 µg/mL
same,"Dissolved amount, elution time 120 min",[1]; Haloperidol,50.1 µg/mL
same,"Dissolved amount, elution time 360 min",[1]; Haloperidol,48.9 µg/mL
same,"Dissolved amount, elution time 3 min",[2]; Haloperidol,8.2 µg/mL
same,"Dissolved amount, elution time 10 min",[2]; Haloperidol,10.0 µg/mL
same,"Dissolved amount, elution time 30 min",[2]; Haloperidol,11.3 µg/mL
same,"Dissolved amount, elution time 120 min",[2]; Haloperidol,12.8 µg/mL
same,"Dissolved amount, elution time 360 min",[2]; Haloperidol,13.1 µg/mL
same,pH at 60 minutes after dissolution,[3]; Haloperidol,8.1
